Data: patent publication US8486900B2, “Method for preparing a Centella asiatica extract rich in madecassoside and in terminoloside” (Bayer Consumer Care AG, priority 2002, dated 2013)

What was measured:
[1] = test system: HaCaT human keratinocytes; test: Cytotoxicity, Neutral Red colorimetric assay on HaCaT human keratinocytes; assay type: cell-based; conditions: for Viability (24 h), % of control / Viability (72 h), % of control: Example 12, HaCaT
Procedure: The cytotoxicity was studied on HaCaT human keratinocytes seeded into 96-well plates at a rate of 20×10^3, broad range, and 10×10^3, limited range, cells per well. The cell viability is evaluated by means of a colorimetric assay with Neutral Red. Neutral Red is a weakly cationic dye that penetrates cell membranes by means of a nonionic diffusion phenomenon and binds intracellularly to the phosphate and/or carboxylic groups of the lysosomal matrix. Modifications in the accumulation and retention of Neutral Red are observed when the cell membranes are damaged. The optical density of the solution obtained after incubation of the cells in the presence of Neutral Red is therefore proportional to the number of living cells.
A broad range of 9 concentrations, from 0.001 to 1 mg/ml, was initially tested. The various test solutions were prepared in DMEM medium, […], supplemented with 10 vol % of FCS, fetal calf serum. […] The cell viability was evaluated by means of a Neutral Red colorimetric assay, after 72 hours of incubation. […] From 1 mg/ml, a slight dose-dependent cytotoxic effect is observed. […]
A second limited range of between 0.075 and 5 mg/ml was tested. […] The cell viability was evaluated by means of a Neutral Red colorimetric assay, after 72 hours of incubation. The results obtained were similar to those recorded in the absence of DMSO.

[2] = test system: IL-8; test: IFN-γ-induced release of IL-8 by normal human keratinocytes; assay type: cell-based; conditions: for IL-8: Example 12, K02-1H6, IFN-γ 1000 U/ml, 48 h + 24 h
Procedure: In order to evaluate the anti-inflammatory activity of terminoloside, of madecassoside and of the mixture of heterosides, we studied the modulatory effects of these three active agents with respect to the production and release of proinflammatory epidermal cytokines (IL-1α, IL-8, PGE-2) by human keratinocytes in culture, subjected to an irritative stress induced either with interferon-gamma (IFN-γ) or with PMA. Human keratinocytes were isolated from human skin. The cells were cultured in serum-free KGM medium (Keratinocyte Growth Medium, sold by the company Clonetics®), according to the usual techniques set up in the laboratory, at 37° C. in a humid air-CO2 (95%-5%) atmosphere. The cells were seeded into 25 cm^2 flasks and passaged regularly before reaching confluency. The principle of the assay is based on evaluating the production of proinflammatory cytokines by human keratinocytes, in response to an irritative stress. The method is based on measuring the intracellular amount of IL-1α and of the amounts of IL-8 and of PGE-2 released into the extracellular medium by keratinocytes cultured in the absence and in the presence of the products being studied, and stimulated even with interferon-gamma (IFN-γ) or with PMA (phorbol-12-myristate-13-acetate).
The study was carried out on keratinocytes isolated from foreskin of young children (strain K02-1H6).
1. Treatment of the cells for 48 h with the product being studied before induction of the irritative stress; 2. induction of the irritative stress: IFN-γ (1000 U/ml); 3. incubation of the “activated” cells, for 24 h, in the presence of the product being studied; 4. assay: IL-8 (extracellular) and IL-1α (intracellular). Cellular protein assay.
Tables 32 to 34 below group together the amounts of IL-8 obtained after activation of the cells (+IFN-γ), and also the basal amounts (−IFN-γ). The IFN-γ-induced production of IL-8 and the anti-inflammatory activity (AIA) were calculated, for each concentration of active agent, according to: AIA=[(IL-8(control cells+IFN)−[…]/IL-8(control cells+IFN)]×100

CC1OC(O[C@@H]2C(CO)OC(OCC3OC(OC(=O)C4CC(C)(C)CC5C6=CCC7C(CC(O)C8C(C)(CO)C(O)C(O)CC78C)C6(C)CCC45)[C@@H](O)C(O)[C@@H]3O)[C@@H](O)C2O)[C@@H](O)C(O)[C@H]1O (stereo partly drawn) [Terminoloside, 1-[O-α-L-rhamnopyranosyl-(1-4)-O-β-glucopyranosol-(1-6)]-O-β-D-glucopyranose 2α,3β,6β,23-tetrahydroxyolea-12-en-28-oate]
Viability (24 h), % of control ([1]; 0.05 mg/ml): 105%
Viability (24 h), % of control ([1]; 0.1 mg/ml): 104%
Viability (24 h), % of control ([1]; 0.25 mg/ml): 105%
Viability (24 h), % of control ([1]; 0.5 mg/ml): 105%
Viability (24 h), % of control ([1]; 1 mg/ml): 104%
Viability (24 h), % of control ([1]; 2.5 mg/ml): 100%
Viability (24 h), % of control ([1]; 5 mg/ml): 81%
Viability (24 h), % of control ([1]; 10 mg/ml): 73%
Viability (72 h), % of control ([1]; 0.1 mg/ml): 100%
Viability (72 h), % of control ([1]; 0.25 mg/ml): 101%
Viability (72 h), % of control ([1]; 0.5 mg/ml): 101%
Viability (72 h), % of control ([1]; 0.75 mg/ml): 103%
Viability (72 h), % of control ([1]; 1 mg/ml): 102%
Viability (72 h), % of control ([1]; 2.5 mg/ml): 103%
Viability (72 h), % of control ([1]; 5 mg/ml): 93%
Viability (72 h), % of control ([1]; 7.5 mg/ml): 86%
Viability (72 h), % of control ([1]; 10 mg/ml): 69%
concentrations inducing no significant modification of the cell response to Neutral Red ([1]; HaCaT, 24 h of contact): 2500 µg/mL
IL-8 ([2]; 0.1 mg/ml): 0.862 pg/μg prot
IL-8 ([2]; 0.25 mg/ml): 0.762 pg/μg prot
IL-8 ([2]; 0.5 mg/ml): 0.708 pg/μg prot
IL-8 ([2]; 1 mg/ml): 0.492 pg/μg prot
inhibition at 100 µg/mL ([2]; Homo sapiens, Keratinocyte, Example 12, IFN-γ 1000 U/ml, 0.1 mg/ml, read-out: Anti-inflammatory activity (%), IL-8): 0%
inhibition at 250 µg/mL ([2]; Homo sapiens, Keratinocyte, Example 12, IFN-γ 1000 U/ml, 0.25 mg/ml, read-out: Anti-inflammatory activity (%), IL-8): 9%
inhibition at 500 µg/mL ([2]; Homo sapiens, Keratinocyte, Example 12, IFN-γ 1000 U/ml, 0.5 mg/ml, read-out: Anti-inflammatory activity (%), IL-8): 15%
inhibition at 1000 µg/mL ([2]; Homo sapiens, Keratinocyte, Example 12, IFN-γ 1000 U/ml, 1 mg/ml, read-out: Anti-inflammatory activity (%), IL-8): 42%
